Reference: publication PMC4965013, “Open Source Drug Discovery with the Malaria Box Compound Collection for Neglected Diseases and Beyond” (PLoS Pathogens, 2016)
Where two headings read alike, the source gives them in different places.

Columns and labels:
[1] = test system: Naegleria fowleri trophozoites; experiment: Naegleria fowleri CellTiter-Glo; format: cell-based; details: 1µM
How it was run: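 Growth inhibition of Naegleria fowleri trophozoites in vitro, read as cellular ATP by CellTiter-Glo 2.0 luminescence in lysed cells, output in relative light units.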

HepG2-A16-CD81EGFP cells = details: 50uM; ref [58, 65]; cited from earlier work
B. bovis (Texas strain) = experiment: B. bovis fluorescence-based growth assay; format: cell-based; details: Babesia bovis, in Bos taurus
[2] = test system: P. falciparum NF54Pfs16 gametocytes stage I-III; details: ref [61], cited from earlier work
[3] = test system: HIV-1 JR-FL or HIV-1 NL4-3 viruses; experiment: HIV-1 viral production p24 ELISA; format: cell-based
Description: Columns FK-GB, Moore group (data presented first in this paper). HIV and HIV-producing cell lines, toxicity and viral suppression. […] MMV compounds were incubated with HIV-1 JR-FL or HIV-1 NL4-3 pseudoviruses and U87-CD4-CCR5 or U87-CD4-CXCR4 cells (obtained through the NIH AIDS Reagent Program, Division of AIDS, NIAID, NIH: U87 CD4+CCR5+ Cells from Dr. HongKui Deng and Dr. Dan R. Littman) respectively for 3 days. Cells were assayed for infection by luciferase production (Bright-Glo Luciferase Substrate, Promega) and cell viability by MTT assay. […] MMV compounds were next incubated with HIV-1 JR-FL or HIV-1 NL4-3 viruses and U87-CD4-CCR5 or U87-CD4-CXCR4 cells respectively for 7 days. Cell supernatants were assayed for viral production by p24 ELISA [153] and cell viability by MTT assay. […] DMSO (5%) was completely toxic to all cells (based on visual inspection) and served as the positive control for MTT assays.

P. falciparum HB3 = experiment: Stage-specificity / mitochondrial integrity image assay Ayong; format: cell-based; details: 10µM
[4] = test system: U87-CD4-CCR5 or U87-CD4-CXCR4 cells; experiment: U87 cell viability MTT; format: cell-based
[5] = test system: S. mansoni newly transformed schistosomula (NTS); design: method as in ref [91] (a number printed in a supplementary file, which may have a reference list of its own: not looked up in the article's list); details: ref [91]; read-out: Schistosoma mansoni newly transformed schistosomula EC50 J. Keiser; cited from earlier work
P. berghei ookinetes = test system: P. berghei ookinetes; design: method as in ref [74] (a number printed in a supplementary file, which may have a reference list of its own: not looked up in the article's list); details: 1µM; ref [74]; cited from earlier work
Brugia malayi = Brugia malayi Scynexis; format: cell-based; details: 10µM
Description: Supplement ppat.1005763.s002.xlsx, sheet "S1 Table Heat Map" | column: Brugia malayi 5d % dead at 10µM Scynexis

[6] = test system: P. falciparum NF54 gametocytes stage I-V; design: method as in ref [58, 65] (a number printed in a supplementary file, which may have a reference list of its own: not looked up in the article's list); details: 12.5µM; ref [58, 65]; cited from earlier work
Chromera velia = Chromera velia flagellation motility assay; details: 1µM
[7] = test system: Trypanosoma brucei brucei 427; experiment: T. brucei brucei Scynexis; format: cell-based
[8] = test system: P. falciparum 3D7 gametocytes stage IV-V; experiment: Gametocyte pLDH assay UMIL; format: cell-based; details: Plasmodium falciparum, 3D7, 72 h
Description: Columns BO-BR: Taramelli group (Columns BO-BP data presented first in this paper, Columns BQ-BR are new data except as noted below). Gametocytocidal activity at UMIL. The Malaria Box compounds were used for primary screening against P. falciparum 3D7 gametocytes and subsequently for IC50 determination against Pf gametocytes obtained from the 3D7 and the 3D7elo1-pfs16-CBG99 transgenic strain [74], as previously described. The primary screening was performed on stage IV-V gametocytes from the 3D7 strain at 3.7 µM, in 96 well plates, using 100 nM epoxomicin and 1 µM DHA as positive controls and 0.5% DMSO as negative untreated control. […] The dose-response experiments were performed in 96 well plates using the 3D7 strain (pLDH, 72+72h, column BR in heat map) and the 3D7elo1-pfs16-CBG99 (luciferase assay, 72h, column BQ in heat map). Data analysis was performed as described.

Aedes aegypti = Aedes aegypti Scynexis; details: 10µM
Description: Supplement ppat.1005763.s002.xlsx, sheet "S1 Table Heat Map" | column: Aedes aegypti % dead 48hr 10 µM Synexis

[9] = test system: P. falciparum Stage V male and female gametocytes; design: method as in ref [74] (a number printed in a supplementary file, which may have a reference list of its own: not looked up in the article's list); details: 1µM; ref [74]; cited from earlier work
B. caballi (USDA) = experiment: B. caballi fluorescence-based growth assay; format: cell-based; details: Babesia caballi

CCN(CC)c1cc(C)c2cc(NC(=O)c3cccc(OC)c3)ccc2n1 [MMV000498]
Naegleria fowleri % growth [1]: 80% | HepG2 toxicity rep 1 (HepG2-A16-CD81EGFP cells): 0.453% | HepG2 toxicity rep 2 (HepG2-A16-CD81EGFP cells): -1.24% | EC50 (B. bovis (Texas strain)): 10 µM | gametocyte early stage (I-III) luciferase % inhibition ([2]; 0.5µM): -15% | gametocyte early stage (I-III) luciferase % inhibition ([2]; 2.5µM): -18% | gametocyte early stage (I-III) luciferase % inhibition ([2]; 5µM): -3.81% | inhibition at 5 µM ([3]; Human immunodeficiency virus 1, NL43, read-out: HIV R5 % inhibition rep3 in U87 (P24 Washout)): -9% | inhibition at 5 µM ([3]; Human immunodeficiency virus 1, NL43, read-out: HIV X4 % inhibition rep3 in U87 (P24 NO Washout)): -118% | inhibition at 5 µM ([3]; Human immunodeficiency virus 1, NL43, read-out: HIV X4 %inhibition rep3 in U87 (P24 Washout)): -40% | P. falciparum HB3 early ring (ER) stage activity (P. falciparum HB3): ✖ | P. falciparum HB3 late ring (LR) stage activity (P. falciparum HB3): ✖ | P. falciparum HB3 trophozoite (T) stage activity (P. falciparum HB3): ✖ | U87 % cell death rep3 (X4 P24 Washout expt) ([4]; 5uM): -4% | U87 % Cell Death rep3 (R5 P24 Washout expt) ([4]; 5µM): 1.63% | U87 % cell death rep3 (R5 P24 NO Washout expt) ([4]; 5µM): 33% | U87 % cell death rep3 (X4 P24 NO Washout expt) ([4]; 5µM): 13% | U87 Luc % cell death rep1 ([4]; 5µM): 21% | U87 Luc % cell death rep2 ([4]; 5µM): 64% | EC50 [5]: > 33.3 µM | P. berghei ookinete assay % inhibition (P. berghei ookinetes): -7.5% | Brugia malayi 5d % dead (Brugia malayi): 13% | gametocyte Stage I % inhibition [6]: 84% | gametocyte Stage II % inhibition [6]: 43% | gametocyte Stage III % inhibition [6]: 12% | gametocyte Stage IV % inhibition [6]: 1.56% | gametocyte Stage V % inhibition [6]: -1.9% | Chromera velia 24 hr Flagellation (control standardized to ++; 0 = no flagella) (Chromera velia; 24 hr): ++ | Chromera velia 72 hr Flagellation (control standardized to ++; 0 = no flagella) (Chromera velia; 72 hr): +++ | inhibition at 5 µM [7]: 74% | inhibition at 3.7 µM ([8]; 3.7 µM, read-out: gametocytes 3D7, stage IV-V, pLDH, 72+72h, %inhibition): 11% | inhibition at 3.7 µM ([8]; 3.7µM, read-out: gametocytes 3D7, stage IV-V, pLDH, 72h, %inhibition): 5% | Aedes aegypti % dead 48hr (Aedes aegypti): 19% | Male gametocyte Stage V % inhibition of gamete formation [9]: -1.33% | female gametocyte Stage V % inhibition of gamete formation [9]: -22% | EC50 (B. caballi (USDA)): 9.33 µM
